Assay results as given in patent US20090247559A1 (Exelixis, Inc., priority 2007, published 2009).
Counter-ions that a name gives are not always drawn. Like-named read-outs stand apart in the source and are kept apart here.

Tests used:
[1] = molecular target: CK2 (Homo sapiens, UniProt P68400); assay: CK2 inhibition, biochemical chemiluminescence holoenzyme assay (Kinase Glo, IC50 determination); details: Table 1 activity class; symbol given only if active; read-out: CK2 IC50 (Activity C)
Method in brief: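 Holoenzyme CK2 assay; compounds pre-incubated with substrate and enzyme, then reacted 150 min at 24-27° C. Remaining ATP measured as luminescence with Kinase Glo, and IC50 derived from the signal.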

[2] = molecular target: CDC7 (Homo sapiens, UniProt O00311); assay: CDC7 inhibition, biochemical chemiluminescence assay (Kinase Glo, IC50 determination)
CDC7, sequence (O00311 whole entry): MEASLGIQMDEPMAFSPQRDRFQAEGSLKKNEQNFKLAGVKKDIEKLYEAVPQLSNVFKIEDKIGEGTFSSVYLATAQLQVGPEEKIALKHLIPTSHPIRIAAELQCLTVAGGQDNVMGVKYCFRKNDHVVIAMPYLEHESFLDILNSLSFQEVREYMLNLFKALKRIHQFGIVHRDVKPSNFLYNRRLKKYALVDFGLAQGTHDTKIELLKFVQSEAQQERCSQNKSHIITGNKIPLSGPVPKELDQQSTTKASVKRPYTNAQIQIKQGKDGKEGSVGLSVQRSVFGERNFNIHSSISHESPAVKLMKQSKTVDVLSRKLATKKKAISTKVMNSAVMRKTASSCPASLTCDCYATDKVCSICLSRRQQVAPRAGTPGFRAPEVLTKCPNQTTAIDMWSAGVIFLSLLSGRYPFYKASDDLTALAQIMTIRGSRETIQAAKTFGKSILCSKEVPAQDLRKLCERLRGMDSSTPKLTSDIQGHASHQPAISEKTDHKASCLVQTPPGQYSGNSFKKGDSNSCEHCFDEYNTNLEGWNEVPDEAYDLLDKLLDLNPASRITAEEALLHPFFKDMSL
CDC7, sequence (Q9UBU7 whole entry partner): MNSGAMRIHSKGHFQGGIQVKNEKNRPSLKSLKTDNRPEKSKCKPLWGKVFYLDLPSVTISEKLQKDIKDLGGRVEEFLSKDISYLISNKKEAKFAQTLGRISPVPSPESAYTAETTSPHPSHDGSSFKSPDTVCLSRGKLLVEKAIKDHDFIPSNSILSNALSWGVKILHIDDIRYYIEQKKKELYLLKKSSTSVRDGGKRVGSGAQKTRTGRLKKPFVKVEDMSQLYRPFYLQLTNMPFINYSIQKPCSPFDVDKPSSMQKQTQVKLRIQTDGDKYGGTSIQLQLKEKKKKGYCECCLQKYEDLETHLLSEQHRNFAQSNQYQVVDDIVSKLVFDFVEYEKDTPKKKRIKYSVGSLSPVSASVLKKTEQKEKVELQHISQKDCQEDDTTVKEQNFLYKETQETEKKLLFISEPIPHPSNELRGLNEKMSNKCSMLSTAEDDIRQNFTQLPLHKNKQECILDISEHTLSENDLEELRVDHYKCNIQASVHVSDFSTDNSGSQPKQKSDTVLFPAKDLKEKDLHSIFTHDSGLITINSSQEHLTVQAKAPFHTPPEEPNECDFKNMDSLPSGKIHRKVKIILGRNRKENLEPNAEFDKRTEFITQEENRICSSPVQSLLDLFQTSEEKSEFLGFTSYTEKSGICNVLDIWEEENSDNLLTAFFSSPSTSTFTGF
Method in brief: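 CDC7 enzyme preincubated with compound 10 min at ambient temperature, then ATP mix in Tris Base added; reaction 90 min at 24-27 °C. Remaining ATP quantified by Kinase Glo luminescence to give IC50.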

[3] = molecular target: PIM (PIM-1, PIM-2, and/or PIM-3); assay: PIM-1, PIM-2 and PIM-3 inhibition, biochemical chemiluminescence assays (Kinase Glo, IC50 determination); details: Table 1 activity class; PIM refers to PIM-1, PIM-2, and/or PIM-3; read-out: PIM IC50 (Activity B)
[4] = Table 1 activity class, symbol given only if active, read-out: CDC7 IC50 (Activity A)
[5] = compounds in Table 1, read-out: CDC7 IC50 value
[6] = CDC7 IC50 (Activity A), Table 1 activity class, symbol given only if active
[7] = CDC7 IC50 value, compounds in Table 1

CK2, sequence (P68400 whole entry): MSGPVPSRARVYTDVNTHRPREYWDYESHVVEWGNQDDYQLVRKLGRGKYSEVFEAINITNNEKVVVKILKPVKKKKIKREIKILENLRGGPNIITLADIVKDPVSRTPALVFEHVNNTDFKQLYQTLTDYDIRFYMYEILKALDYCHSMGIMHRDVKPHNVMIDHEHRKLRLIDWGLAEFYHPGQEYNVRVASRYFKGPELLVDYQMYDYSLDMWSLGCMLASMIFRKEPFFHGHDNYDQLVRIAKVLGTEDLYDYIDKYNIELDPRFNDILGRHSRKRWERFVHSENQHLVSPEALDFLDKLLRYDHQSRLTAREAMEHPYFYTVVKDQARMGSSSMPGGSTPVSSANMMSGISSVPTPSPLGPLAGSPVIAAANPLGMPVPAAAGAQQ
CK2, sequence (P67870 whole entry partner): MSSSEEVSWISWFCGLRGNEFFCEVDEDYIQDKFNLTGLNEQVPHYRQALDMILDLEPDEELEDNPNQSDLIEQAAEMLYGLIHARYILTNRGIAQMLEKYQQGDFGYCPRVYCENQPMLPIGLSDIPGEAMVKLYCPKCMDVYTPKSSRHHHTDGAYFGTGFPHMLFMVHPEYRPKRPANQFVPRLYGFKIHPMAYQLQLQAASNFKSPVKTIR

| SMILES | IC50 [1] [µM] | IC50 [2, 4] [µM] | IC50 [2, 5] [µM] | IC50 [3] [µM] | IC50 [2, 6] [µM] | IC50 [2, 7] [µM] |
| --- | --- | --- | --- | --- | --- | --- |
| C[C@H](O)c1nc2c(oc3ccc(Br)cc32)c(=O)[nH]1 [Compound 497, 8-bromo-2-[(1S)-1-hydroxyethyl][1]benzofuro[3,2-d]pyrimidin-4(3H)-one] | < 10 | < 10 |  | < 10 |  |  |
| O=c1[nH]c(C2CCCO2)nc2c1oc1ccc(Br)cc12 (stereo not shown) [Compound 499, 8-bromo-2-(tetrahydrofuran-2-yl)[1]benzofuro[3,2-d]pyrimidin-4(3H)-one] | < 10 | < 10 |  | < 10 |  |  |
| O=c1[nH]c([C@@H]2CC3CCCCC3N2)nc2c1oc1ccc(Br)cc12 (stereo partly drawn) [Compound 501, 8-bromo-2-[(2S)-octahydro-1H-indol-2-yl][1]benzofuro[3,2-d]pyrimidin-4(3H)-one] | < 10 |  |  | < 10 | < 10 | < 0.1 |
| CCC(CC)NCc1nc2c(oc3ccc(Br)cc32)c(=O)[nH]1 [Compound 502, 8-bromo-2-{[(1-ethylpropyl)amino]methyl}[1]benzofuro[3,2-d]pyrimidin-4(3H)-one] | < 10 | < 10 | < 0.1 | < 10 |  |  |
| CC(C)(C)NCc1nc2c(oc3ccc(Br)cc32)c(=O)[nH]1 [Compound 503, 8-bromo-2-{[(1,1-dimethylethyl)amino]methyl}[1]benzofuro[3,2-d]pyrimidin-4(3H)-one] | < 10 | < 10 | < 0.1 | < 10 |  |  |
| O=c1[nH]c(CNC2CCCCC2)nc2c1oc1ccc(Br)cc12 [Compound 504, 8-bromo-2-[(cyclohexylamino)methyl][1]benzofuro[3,2-d]pyrimidin-4(3H)-one] | < 10 | < 10 |  | < 10 |  |  |
| O=c1[nH]c([C@@H]2CCCN2)nc2c1oc1ccccc12 [Compound 506, 2-[(2S)-pyrrolidin-2-yl][1]benzofuro[3,2-d]pyrimidin-4(3H)-one] | < 10 | < 10 |  | < 10 |  |  |
| O=c1[nH]c([C@@H]2CCCN2)nc2c1oc1ccc(Cl)cc12 [Compound 507, 8-Chloro-2-[(2S)-pyrrolidin-2-yl][1]benzofuro[3,2-d]pyrimidin-4(3H)-one Hydrochloride] | < 10 | < 10 | < 0.1 | < 10 |  |  |
| O=c1[nH]c([C@@H]2CCN2)nc2c1oc1ccc(Br)cc12 [Compound 509, 2-[(2S)-azetidin-2-yl]-8-bromo[1]benzofuro[3,2-d]pyrimidin-4(3H)-one] | < 10 | < 10 | < 0.1 | < 10 |  |  |
| O=c1[nH]c([C@@H]2C[C@H](O)CN2)nc2c1oc1ccc(Br)cc12 [Compound 511, 8-bromo-2-[(2S,4S)-4-hydroxypyrrolidin-2-yl][1]benzofuro[3,2-d]pyrimidin-4(3H)-one] | < 10 | < 10 | < 0.1 | < 10 |  |  |
| O=c1[nH]c([C@@H]2CC(F)(F)CN2)nc2c1oc1ccc(Br)cc12 [Compound 512, 8-bromo-2-[(2S)-4,4-difluoropyrrolidin-2-yl][1]benzofuro[3,2-d]pyrimidin-4(3H)-one] | < 10 | < 10 | < 0.1 | < 10 |  |  |
| O=c1[nH]c([C@@H]2C[C@H](F)CN2)nc2c1oc1ccc(Br)cc12 [Compound 513, 8-bromo-2-[(2S,4S)-4-fluoropyrrolidin-2-yl][1]benzofuro[3,2-d]pyrimidin-4(3H)-one] | < 10 | < 10 | < 0.1 | < 10 |  |  |
| CC1(C)CC[C@@H](c2nc3c(oc4ccc(Br)cc43)c(=O)[nH]2)N1 [Compound 515, 8-bromo-2-[(2S)-5,5-dimethylpyrrolidin-2-yl][1]benzofuro[3,2-d]pyrimidin-4(3H)-one] | < 10 | < 10 | < 0.1 | < 10 |  |  |
| CN(C)Cc1nc2c(oc3ccc(Br)cc32)c(=O)[nH]1 [Compound 517, 8-bromo-2-[(dimethylamino)methyl][1]benzofuro[3,2-d]pyrimidin-4(3H)-one] | < 10 | < 10 | < 0.1 | < 10 |  |  |
| CCC(C)N(C)Cc1nc2c(oc3ccc(Br)cc32)c(=O)[nH]1 (stereo not shown) [Compound 518, 8-bromo-2-{[methyl(1-methylpropyl)amino]methyl}[1]benzofuro[3,2-d]pyrimidin-4(3H)-one] | < 10 | < 10 | < 0.1 | < 10 |  |  |
| CC[C@@H](C)NCc1nc2c(oc3ccc(Br)cc32)c(=O)[nH]1 [Compound 519, 8-bromo-2-({[(1R)-1-methylpropyl]amino}methyl)[1]benzofuro[3,2-d]pyrimidin-4(3H)-one] | < 10 | < 10 | < 0.1 | < 10 |  |  |
| O=c1[nH]c(CN2CC3CCC2C3)nc2c1oc1ccc(Br)cc12 (stereo not shown) [Compound 520, 2-(2-azabicyclo[2.2.1]hept-2-ylmethyl)-8-bromo[1]benzofuro[3,2-d]pyrimidin-4(3H)-one] | < 10 |  |  | < 10 | < 10 | < 0.1 |
| O=c1[nH]c(CNC2CC2)nc2c1oc1ccc(Br)cc12 [Compound 521, 8-bromo-2-[(cyclopropylamino)methyl][1]benzofuro[3,2-d]pyrimidin-4(3H)-one] | < 10 | < 10 | < 0.1 | < 10 |  |  |
| CC[C@H](C)NCc1nc2c(oc3ccc(Br)cc32)c(=O)[nH]1 [Compound 522, 8-bromo-2-({[(1S)-1-methylpropyl]amino}methyl)[1]benzofuro[3,2-d]pyrimidin-4(3H)-one] | < 10 | < 10 | < 0.1 | < 10 |  |  |

Continued, in another order:

| IC50 [1] [µM] | IC50 [2, 4] [µM] | IC50 [2, 5] [µM] | IC50 [3] [µM] | SMILES | IC50 [2, 6] [µM] | IC50 [2, 7] [µM] |
| --- | --- | --- | --- | --- | --- | --- |
| < 10 | < 10 | < 0.1 | < 10 | CC(C)NCc1nc2c(oc3ccc(Br)cc32)c(=O)[nH]1 [Compound 496, 8-bromo-2-{[(1-methylethyl)amino]methyl}[1]benzofuro[3,2-d]pyrimidin-4(3H)-one] |  |  |
| < 10 | < 10 | < 0.1 | < 10 | O=c1[nH]c(CN2CC[C@H](CO)C2)nc2c1oc1ccc(Br)cc12 [Compound 498, 8-bromo-2-{[(3S)-3-(hydroxymethyl)pyrrolidin-1-yl]methyl}[1]benzofuro[3,2-d]pyrimidin-4(3H)-one] |  |  |
| < 10 | < 10 |  | < 10 | O=c1[nH]c([C@@H]2CSCN2)nc2c1oc1ccc(Br)cc12 [Compound 500, 8-bromo-2-[(4R)-1,3-thiazolidin-4-yl][1]benzofuro[3,2-d]pyrimidin-4(3H)-one] |  |  |
| < 10 | < 10 | < 0.1 | < 10 | O=c1[nH]c([C@@H]2C=CCN2)nc2c1oc1ccc(Br)cc12 [Compound 505, 8-bromo-2-[(2S)-2,5-dihydro-1H-pyrrol-2-yl][1]benzofuro[3,2-d]pyrimidin-4(3H)-one] |  |  |
| < 10 | < 10 | < 0.1 | < 10 | CC(c1nc2c(oc3ccc(Br)cc32)c(=O)[nH]1)N1CC[C@H](O)C1 (stereo partly drawn) [Compound 508, 8-bromo-2-{1-[(3S)-3-hydroxypyrrolidin-1-yl]ethyl}[1]benzofuro[3,2-d]pyrimidin-4(3H)-one] |  |  |
| < 10 | < 10 |  | < 10 | O=c1[nH]c([C@@H]2Cc3ccccc3N2)nc2c1oc1ccc(Br)cc12 [Compound 510, 8-bromo-2-[(2S)-2,3-dihydro-1H-indol-2-yl][1]benzofuro[3,2-d]pyrimidin-4(3H)-one] |  |  |
| < 10 | < 10 | < 0.1 | < 10 | O=c1[nH]c([C@@H]2C[C@@H](F)CN2)nc2c1oc1ccc(Br)cc12 [Compound 514, 8-bromo-2-[(2S,4R)-4-fluoropyrrolidin-2-yl][1]benzofuro[3,2-d]pyrimidin-4(3H)-one] |  |  |
| < 10 | < 10 | < 0.1 | < 10 | CNCc1nc2c(oc3ccc(Br)cc32)c(=O)[nH]1 [Compound 516, 8-bromo-2-[(methylamino)methyl][1]benzofuro[3,2-d]pyrimidin-4(3H)-one] |  |  |
| < 10 | < 10 | < 0.1 | < 10 | O=C1CC[C@@H](c2nc3c(oc4ccc(Br)cc43)c(=O)[nH]2)N1 [Compound 523, 8-bromo-2-[(2S)-5-oxopyrrolidin-2-yl][1]benzofuro[3,2-d]pyrimidin-4(3H)-one] |  |  |
| < 10 | < 10 | < 0.1 | < 10 | O=c1[nH]c([C@@H]2C[C@@H](F)CN2)nc2c1oc1ccc(Cl)cc12 [Compound 526, 8-chloro-2-[(2S,4R)-4-fluoropyrrolidin-2-yl][1]benzofuro[3,2-d]pyrimidin-4(3H)-one] |  |  |
| < 10 | < 10 | < 0.1 | < 10 | CN1CCC[C@H]1c1nc2c(oc3ccc(Br)cc32)c(=O)[nH]1 [Compound 527, 8-Bromo-2-[(2S)-1-methylpyrrolidin-2-yl][1]benzofuro[3,2-d]pyrimidin-4(3H)-one hydrochloride] |  |  |
| < 10 | < 10 | < 0.1 | < 10 | O=c1[nH]c([C@@H]2C[C@H](O)CN2)nc2c1oc1ccc(Cl)cc12 [Compound 528, 8-chloro-2-[(2S,4S)-4-hydroxypyrrolidin-2-yl][1]benzofuro[3,2-d]pyrimidin-4(3H)-one] |  |  |
